“Also recorded” adds a separate entry of the source. Where two headings read alike, the source gives them in different places.
Columns and labels:
[1] = target: T1, hVDR (Vitamin D receptor) (Homo sapiens, UniProt P11473); assay: Crossreactive receptor transcriptional assay (Gal4 hybrid); assay type: cell-based
T1 construct: 90-427; expressed in transfected cells; host or cells: CHO cells, transient transfection
T1 sequence (P11473 90-427): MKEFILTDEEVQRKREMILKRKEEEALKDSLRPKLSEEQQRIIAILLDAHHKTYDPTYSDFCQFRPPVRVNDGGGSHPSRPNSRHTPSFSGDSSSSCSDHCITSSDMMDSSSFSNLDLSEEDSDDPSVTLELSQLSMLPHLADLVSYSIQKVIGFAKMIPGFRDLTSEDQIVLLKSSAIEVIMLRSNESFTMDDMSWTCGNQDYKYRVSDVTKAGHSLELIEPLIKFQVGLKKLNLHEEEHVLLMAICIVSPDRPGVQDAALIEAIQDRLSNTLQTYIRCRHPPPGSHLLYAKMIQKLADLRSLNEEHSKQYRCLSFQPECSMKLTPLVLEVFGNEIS
Procedure: (§1) A firefly luciferase reporter gene for Gal4 DBD hybrid receptors, such as Gal4-RORγ, contains five copies of the Gal4 17-mer response element in its promoter and the coding sequence for firefly luciferase (pG5-luc, Promega). CHO (Chinese Hamster Ovary) cells were cultured in Ham's F12 medium supplemented with 10% fetal calf serum (Gemini Biologicals), 10 μg/ml penicillin and streptomycin, and were maintained in a humidified 37° C. incubator (Thermo Electron, Steri-Cycle) with 5% CO2. 24 hours before transfection, cells were plated in T175 flasks (5×10^6 cells/flask) or T75 flasks (1.7×10^6 cells/flask).
Plates are maintained at 37° C. in a humidified atmosphere with 7% CO2 overnight. […] Approximately 40 hours later, cytotoxicity in the assay well was characterized by addition of the dye resazurin (O'Brien, Wilson et al. 2000) to a final concentration of 3 μM. […] Percent viability was determined as 2 hour fluorescence, minus background at t=0 hours, normalized to DMSO controls. For detection of luciferase activity, media was removed from plates after the measurement of resazurin conversion, and SteadyLite luciferase reagent (Perkin-Elmer) was added (30 μl/well). Luminescence is detected with a Victor 2-V plate reader (Perkin-Elmer) and normalized to luciferase activity of DMSO control wells alone.

human RORγ = target: T2, human RORγ (Homo sapiens, UniProt P51449); assay: Transcriptional assay of human RORγ (Gal4-hRORγ); assay type: cell-based; conditions: Table 4B
T2 construct: expressed in transfected cells; host or cells: CHO cells, transient transfection
T2 sequence (P51449 253-518): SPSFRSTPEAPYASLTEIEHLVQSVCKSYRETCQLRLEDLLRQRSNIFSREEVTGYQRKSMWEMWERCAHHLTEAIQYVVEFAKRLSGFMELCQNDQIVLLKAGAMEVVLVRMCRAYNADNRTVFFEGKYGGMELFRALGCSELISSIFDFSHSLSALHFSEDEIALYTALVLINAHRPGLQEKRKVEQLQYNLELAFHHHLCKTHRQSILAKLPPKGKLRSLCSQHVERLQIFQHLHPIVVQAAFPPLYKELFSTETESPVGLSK
Procedure: The complete Gal4-hRORγ nucleotide sequence is shown below:
as §1, with “cells/flask). Transient transfection of CHO cells was performed using TransIT-CHO reagents (Minis, Madison, Wis.) with a mixing ratio of 2:6:1 between plasmid DNA (in μg), TransIT-CHO (in μl) and CHO-mojo (in μl).” for “cells/flask).”
Plates are maintained at 37° C. in a humidified atmosphere with 7% CO2 overnight. Four (4) hours after cell seeding, compounds dissolved in DMSO at 10 mM were added to cells at final concentrations of 20 micromolar (μM) to 20 nanomolar (nM) in 0.2% DMSO in triplicate plates. Approximately 40 hours later, cytotoxicity in the assay well was characterized by addition of the dye resazurin (O'Brien, Wilson et al. 2000) to a final concentration of 3 μM. […] Percent viability was determined as 2 hour fluorescence, minus background at t=0 hours, normalized to DMSO controls. For detection of luciferase activity, media was removed from plates after the measurement of resazurin conversion, and SteadyLite luciferase reagent (Perkin-Elmer) was added (30 μl/well). Luminescence is detected with a Victor 2-V plate reader (Perkin-Elmer) and normalized to luciferase activity of DMSO control wells alone.

[2] = system: IL-22 release in lymph node cultures; assay: Lymph node cell cultures from MOG-immunized C57BL/6 mice, IL-22 ELISA; assay type: cell-based
Procedure: FIGS. 15A-B. IL-22 release in lymph node cultures is regulated by RORγ ligands. Lymph node cells from MOG-immunized C57BL/6 mice were cultured for 3 days with 30 μg/ml MOG, […] IL-23 (FIG. 15A) and 3 μM compounds (FIG. 15B). Culture media were analyzed by IL-22 ELISA.
ELISA kits for mouse IL-17 and human IL-17 were from eBioscience (San Diego, Calif.). ELISA assays were performed following the manufacturer's protocol. Certain samples were diluted 20-fold to avoid maximization of enzymatic signals. For mouse IL-22 ELISA, antibodies and standards were from Antigenix America (Huntington Station, N.Y.) and accessory components were from eBioscience. The IL-22 assay protocol was similar to that of the IL-17 assays.
The proinflammatory cytokine IL-22 is also expressed in Th-17 cells. […] In addition, IL-22 seems to have 30-50 fold higher levels than IL-17. […] This is illustrated in FIG. 15.

[3] = system: TH1 cell differentiation from naïve CD4+ T cells; assay: Differentiation of naïve CD4+ T cells with IL-12 (Th-1 protocol), IFN-γ staining by FACS; assay type: cell-based, mouse; conditions: for effect on TH1 cell differentiation: in the presence of IL-12
[4] = system: human IL-17 release from PBMCs; assay: Human IL-17 release from Con A stimulated PBMCs (ELISA); assay type: cell-based; conditions: 1 μg/ml Con A, 3 days; for reversal of antagonist effect on IL-17 release by agonist: 3 μM each; for Con A stimulated IL-17 release into culture medium: 3 μM
Description: We also investigated whether human IL-17 is subject to regulation by RORγ ligands.

[5] = system: TH-17 cell differentiation from naïve CD4+ T cells; assay: Differentiation of naïve CD4+ T cells, intracellular IL-17/IFN-γ staining by FACS (TH-17 protocol, TGFβ + IL-6); assay type: cell-based, mouse; conditions: for Cell Frequency (%) Th-17 Differentiation IFN-γ^+ / Cell Frequency (%) Th-17 Differentiation IL-17^+: Table 11, 3 μM; for Cell Frequency (%) Th-17 Differentiation IFN-γ^+: DMSO vehicle 1.03%; for Cell Frequency (%) Th-17 Differentiation IL-17^+: DMSO vehicle 3.81%
[6] = Table 6, read-out: Potency (EC50) at hVDR
[7] = Table 9, 3 μM (combination 3 μM each), 10 ng/ml IL-12, DMSO 36.3%
[8] = Table 9, 3 μM (combination 3 μM each), 4 ng/ml TGFβ and 20 ng/ml IL-6, DMSO 2.32%
[9] = Table 9, 3 μM (combination 3 μM each), DMSO 1.60%

O=S(=O)(c1ccccc1)N(CC(F)(F)F)c1ccc(C(O)(C(F)(F)F)C(F)(F)F)cc1 [Compound T0901317, N-(2,2,2-Trifluoro-ethyl)-N-[4-(2,2,2-trifluoro-1-hydroxy-1-trifluoromethyl-ethyl)-phenyl]-benzenesulfonamide, reference compound]
EC50 [1, 6]: > 10 µM

C[C@@H]1CC[C@@]2(OC1)O[C@H]1C[C@H]3[C@@H]4CC[C@H]5C[C@@H](O)CC[C@]5(C)[C@H]4C[C@@H](O)[C@]3(C)[C@H]1[C@@H]2C [OR-885, 5α,20α, 22α, 25D-SPIROSTAN-3β, 12β-DIOL]
EC50 (human RORγ): 5.1 µM
EC50 (μM), transcriptional assay of human RORγ (human RORγ): significantly less potent at hRORγ
IL-22 production in LN cultures [2]: inhibited
Cell Frequency (%) Th-1 Protocol IFN-γ^+ ([3]; Table 10, 3 μM, DMSO vehicle 29.7%): 34.2%
reversal of antagonist effect on IL-17 release by agonist [4]: partially reversible by OR-12872
Cell Frequency (%) TH-17 Protocol IFN-γ^+ [5]: 1.45%
Cell Frequency (%) TH-17 Protocol IL-17^+ [5]: 0.52%
effect on TH-17 cell differentiation [5]: blocks the differentiation of TH-17 cells
EC50 [1]: > 10 µM

COC(C)CCC(C)C1CCC2C3CC(O)C4CC(O)CCC4(C)C3CCC12C (stereo not drawn) [OR-12872, 17-(4-Methoxy-1-methyl-pentyl)-10,13-dimethyl-hexadecahydro-cyclopenta[a]phenanthrene-3,6-diol]
IL-22 production in LN cultures ([2]; 3 μM each (FIG. 15)): enhanced
Cell Frequency (%) Th-1 Protocol IFN-γ^+ [3, 7]: 41.4%
Cell Frequency (%) Th-1 Protocol IFN-γ^+ ([3]; Table 10, 1 μM, DMSO vehicle 29.7%): 30.8%
effect on TH1 cell differentiation ([3]; 3 μM): Neither 3 μM OR-1050 nor 3 μM OR-12872 had an effect on the frequency of TH1 cell differentiation
reversal of antagonist effect on IL-17 release by agonist [4]: partly reverse the effects of OR-1050 and OR-13571
Con A stimulated IL-17 release into culture medium [4]: does not significantly alter IL-17 release
effect on TH-17 cell differentiation [5]: stimulatory; also recorded: able to reverse the effect of OR-1050; also recorded: increases the fraction of IL-17^+ cells
elevation of TH-17 frequency by agonist alone ([5]; 3 μM (FIG. 8)): 60%
increase of TH-17 frequency from the lower baseline produced by OR-1050 ([5]; 3 μM agonist in the presence of 3 μM OR-1050 (FIG. 8)): 400%
Cell Frequency (%) TH-17 Protocol IL-17^+ [5, 8]: 3.91%
Cell Frequency (%) TH-17 Protocol IFN-γ^+ [5, 9]: 1.37%
Cell Frequency (%) TH-17 Protocol IFN-γ^+ ([5]; Table 10, 1 μM, DMSO vehicle 0.71%): 0.65%
Cell Frequency (%) TH-17 Protocol IL-17^+ ([5]; Table 10, 1 μM, DMSO vehicle 2.46%): 3.96%
EC50 [1, 6]: > 10 µM

CCn1c(CNc2ccc(Cl)cc2)nnc1SCC(=O)Nc1cccc2ccccc12 [OR-133008, 2-{5-[(4-Chloro-phenylamino)-methyl]-4-ethyl-4H-[1,2,4]triazol-3-ylsulfanyl}-N-naphthalen-1-yl-acetamide]
EC50 (human RORγ): 6.8 µM
EC50 [1, 6]: > 10 µM

COc1c(C=NNc2nc(N3CCCCC3)nc(N3CCCCC3)n2)cccc1[N+](=O)[O-] [OR-2161, N-(4,6-Di-piperidin-1-yl-[1,3,5]triazin-2-yl)-N′-(2-methoxy-3-nitro-benzylidene)-hydrazine]
EC50 (human RORγ): 1 µM
EC50 [1, 6]: > 10 µM

CCN(c1ccc(C(O)(C(F)(F)F)C(F)(F)F)cc1)S(=O)(=O)c1ccc([N+](=O)[O-])cc1 [OR-1050, N-Ethyl-4-nitro-N-[4-(2,2,2-trifluoro-1-hydroxy-1-trifluoromethyl-ethyl)-phenyl]-benzenesulfonamide]
EC50 (human RORγ): 0.4 µM
IL-22 production in LN cultures ([2]; 3 μM each (FIG. 15)): inhibited
Cell Frequency (%) Th-1 Protocol IFN-γ^+ [3, 7]: 37.4%
effect on TH1 cell differentiation ([3]; 3 μM): does not inhibit TH1 differentiation
Con A stimulated IL-17 release into culture medium [4]: inhibited
effect on TH-17 cell differentiation [5]: significantly inhibited TH-17 cell differentiation in a dose-dependent manner; also recorded: decreases the proportion of IL-17^+ cells
Cell Frequency (%) TH-17 Protocol IL-17^+ [5, 8]: 0.44%
Cell Frequency (%) TH-17 Protocol IFN-γ^+ [5, 9]: 1.42%
Cell Frequency (%) Th-17 Differentiation IFN-γ^+ [5]: 1.09%
Cell Frequency (%) Th-17 Differentiation IL-17^+ [5]: 1.47%
EC50 [1, 6]: > 10 µM

CC(=O)O[C@H]1CC[C@@]2(C)C(CC[C@]3(C)C2C(=O)C=C2C4[C@@H](C)[C@H](C)CC[C@]4(C(=O)O)CC[C@]23C)C1(C)C (stereo in doubt) [OR-13571, 10-Acetoxy-1,2,6a,6b,9,9,12a-heptamethyl-13-oxo-1,3,4,5,6,6a,6b,7,8,8a,9,10,11,12,12a,12b,13,14b-octadecahydro-2H-picene-4a-carboxylic acid]
EC50 (human RORγ): 0.2 µM
Con A stimulated IL-17 release into culture medium [4]: inhibited
effect on TH-17 cell differentiation [5]: exerted a similar effect on TH-17 differentiation as OR-885 and OR-1050; also recorded: inhibits TH-17 differentiation
Cell Frequency (%) Th-17 Differentiation IFN-γ^+ [5]: 0.93%
Cell Frequency (%) Th-17 Differentiation IL-17^+ [5]: 1.42%
EC50 [1, 6]: > 10 µM

From patent US8389739B1, “Modulators of retinoid-related orphan receptor gamma” (Orphagen Pharmaceuticals, priority 2006, dated 2013)
